Measurements reported in PMC10004634 (PLOS ONE, 2023).
Where two headings read alike, the source gives them in different places.

Experiments:
Test in all cases: biochemical
Set-up in all cases: KINOMEscan scanMAX competition binding, DNA-tagged kinases, qPCR read-out, percent control at 300 nM
ERK3 = molecular target: T1, ERK3 (Homo sapiens, UniProt Q16659)
T1 construct: gene MAPK6

PKN1 = PKN1 (Homo sapiens, UniProt Q16512)
FLT1 = FLT1 (Homo sapiens, UniProt P17948)
SLK = SLK (Homo sapiens, UniProt Q9H2G2)
MELK = MELK (Homo sapiens, UniProt Q14680)
FLT3 = molecular target: T2, FLT3 (Homo sapiens, UniProt P36888)
T2 sequence (P36888 1-993): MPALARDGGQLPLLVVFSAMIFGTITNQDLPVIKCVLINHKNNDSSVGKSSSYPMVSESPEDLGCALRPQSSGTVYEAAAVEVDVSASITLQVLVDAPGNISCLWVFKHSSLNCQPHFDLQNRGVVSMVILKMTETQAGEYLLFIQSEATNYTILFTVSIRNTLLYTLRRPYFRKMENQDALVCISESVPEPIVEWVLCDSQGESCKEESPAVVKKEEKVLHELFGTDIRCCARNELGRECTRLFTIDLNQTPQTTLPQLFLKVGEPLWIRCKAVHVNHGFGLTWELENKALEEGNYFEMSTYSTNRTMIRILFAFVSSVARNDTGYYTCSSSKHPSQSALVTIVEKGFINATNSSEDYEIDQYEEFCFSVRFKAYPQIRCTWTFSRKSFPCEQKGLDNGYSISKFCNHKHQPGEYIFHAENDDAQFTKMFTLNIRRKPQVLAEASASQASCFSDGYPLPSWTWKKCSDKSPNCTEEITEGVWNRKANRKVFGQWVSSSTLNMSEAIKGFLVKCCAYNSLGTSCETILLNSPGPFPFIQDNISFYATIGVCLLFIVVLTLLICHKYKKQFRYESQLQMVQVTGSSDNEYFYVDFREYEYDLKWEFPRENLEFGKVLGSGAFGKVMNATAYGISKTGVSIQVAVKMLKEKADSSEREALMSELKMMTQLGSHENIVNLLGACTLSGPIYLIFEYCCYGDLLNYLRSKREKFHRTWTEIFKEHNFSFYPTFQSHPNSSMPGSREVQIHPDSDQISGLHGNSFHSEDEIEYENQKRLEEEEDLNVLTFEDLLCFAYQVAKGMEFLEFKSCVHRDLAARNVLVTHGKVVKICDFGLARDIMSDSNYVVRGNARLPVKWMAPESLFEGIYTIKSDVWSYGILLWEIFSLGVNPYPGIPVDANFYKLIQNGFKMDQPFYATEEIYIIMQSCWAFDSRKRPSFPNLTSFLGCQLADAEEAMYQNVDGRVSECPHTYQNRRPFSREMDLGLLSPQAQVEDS

ITK = molecular target: T3, ITK (Homo sapiens, UniProt Q08881)
T3 sequence (Q08881 1-620): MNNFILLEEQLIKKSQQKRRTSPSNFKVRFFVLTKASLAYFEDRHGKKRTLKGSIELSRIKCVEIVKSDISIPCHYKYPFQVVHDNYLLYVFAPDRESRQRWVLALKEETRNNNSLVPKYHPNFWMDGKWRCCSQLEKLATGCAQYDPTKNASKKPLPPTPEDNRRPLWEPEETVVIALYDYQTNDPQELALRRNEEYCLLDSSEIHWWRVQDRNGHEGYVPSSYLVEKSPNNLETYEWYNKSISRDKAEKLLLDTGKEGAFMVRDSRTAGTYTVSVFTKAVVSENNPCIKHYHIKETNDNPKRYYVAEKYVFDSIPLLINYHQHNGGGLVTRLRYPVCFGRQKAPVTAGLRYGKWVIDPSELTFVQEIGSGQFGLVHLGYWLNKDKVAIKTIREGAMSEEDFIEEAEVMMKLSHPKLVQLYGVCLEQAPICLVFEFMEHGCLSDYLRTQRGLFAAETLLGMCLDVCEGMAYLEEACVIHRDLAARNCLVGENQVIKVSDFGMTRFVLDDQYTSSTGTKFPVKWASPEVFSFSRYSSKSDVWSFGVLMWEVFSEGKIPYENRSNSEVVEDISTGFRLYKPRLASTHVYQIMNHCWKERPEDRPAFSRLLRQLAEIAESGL

CDKL2 = molecular target: T4, CDKL2 (Homo sapiens, UniProt Q92772)
T4 sequence (Q92772 1-493): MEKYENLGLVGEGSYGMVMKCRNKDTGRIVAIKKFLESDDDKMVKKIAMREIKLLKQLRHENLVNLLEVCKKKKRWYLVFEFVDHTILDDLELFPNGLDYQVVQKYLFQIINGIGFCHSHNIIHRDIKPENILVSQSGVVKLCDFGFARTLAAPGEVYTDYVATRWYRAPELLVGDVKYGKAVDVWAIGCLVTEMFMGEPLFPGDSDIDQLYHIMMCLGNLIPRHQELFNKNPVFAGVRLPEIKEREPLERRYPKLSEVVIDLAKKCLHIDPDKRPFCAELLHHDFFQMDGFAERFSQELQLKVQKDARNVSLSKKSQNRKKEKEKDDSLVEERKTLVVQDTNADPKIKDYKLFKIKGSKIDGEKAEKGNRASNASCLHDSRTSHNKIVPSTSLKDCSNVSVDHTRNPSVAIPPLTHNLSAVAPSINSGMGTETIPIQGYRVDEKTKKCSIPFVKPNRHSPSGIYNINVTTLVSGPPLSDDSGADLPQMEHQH

[1] = read-out: Percent control / Acalabrutinib
[2] = read-out: Percent control / Ibrutinib
[3] = read-out: Percent control / Tirabrutinib
[4] = read-out: Percent control / Zanubrutinib

PKN1, sequence (Q16512 whole entry): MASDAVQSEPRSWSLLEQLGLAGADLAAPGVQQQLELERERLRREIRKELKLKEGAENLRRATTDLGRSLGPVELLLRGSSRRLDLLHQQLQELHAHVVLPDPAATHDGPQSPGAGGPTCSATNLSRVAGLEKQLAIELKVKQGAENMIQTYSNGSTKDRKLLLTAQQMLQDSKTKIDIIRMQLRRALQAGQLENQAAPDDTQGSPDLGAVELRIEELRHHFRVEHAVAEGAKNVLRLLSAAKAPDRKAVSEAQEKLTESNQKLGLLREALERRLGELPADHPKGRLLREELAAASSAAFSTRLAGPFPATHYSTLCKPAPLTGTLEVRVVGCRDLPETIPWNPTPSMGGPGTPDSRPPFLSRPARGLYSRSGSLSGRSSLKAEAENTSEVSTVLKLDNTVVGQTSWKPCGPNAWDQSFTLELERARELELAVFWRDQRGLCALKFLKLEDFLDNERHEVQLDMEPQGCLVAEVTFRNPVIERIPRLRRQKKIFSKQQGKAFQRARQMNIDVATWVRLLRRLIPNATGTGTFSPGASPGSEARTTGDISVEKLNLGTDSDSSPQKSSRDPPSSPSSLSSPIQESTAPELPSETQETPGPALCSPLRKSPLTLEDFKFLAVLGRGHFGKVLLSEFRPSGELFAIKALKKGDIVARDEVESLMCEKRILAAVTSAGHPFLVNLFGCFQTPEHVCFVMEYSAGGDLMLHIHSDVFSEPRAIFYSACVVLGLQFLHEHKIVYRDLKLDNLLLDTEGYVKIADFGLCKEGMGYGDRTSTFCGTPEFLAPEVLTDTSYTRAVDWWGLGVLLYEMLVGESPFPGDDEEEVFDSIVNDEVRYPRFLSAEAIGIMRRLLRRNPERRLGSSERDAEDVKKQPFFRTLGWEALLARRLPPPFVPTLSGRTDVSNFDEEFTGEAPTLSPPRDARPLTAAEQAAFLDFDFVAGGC
SLK, sequence (Q9H2G2 whole entry): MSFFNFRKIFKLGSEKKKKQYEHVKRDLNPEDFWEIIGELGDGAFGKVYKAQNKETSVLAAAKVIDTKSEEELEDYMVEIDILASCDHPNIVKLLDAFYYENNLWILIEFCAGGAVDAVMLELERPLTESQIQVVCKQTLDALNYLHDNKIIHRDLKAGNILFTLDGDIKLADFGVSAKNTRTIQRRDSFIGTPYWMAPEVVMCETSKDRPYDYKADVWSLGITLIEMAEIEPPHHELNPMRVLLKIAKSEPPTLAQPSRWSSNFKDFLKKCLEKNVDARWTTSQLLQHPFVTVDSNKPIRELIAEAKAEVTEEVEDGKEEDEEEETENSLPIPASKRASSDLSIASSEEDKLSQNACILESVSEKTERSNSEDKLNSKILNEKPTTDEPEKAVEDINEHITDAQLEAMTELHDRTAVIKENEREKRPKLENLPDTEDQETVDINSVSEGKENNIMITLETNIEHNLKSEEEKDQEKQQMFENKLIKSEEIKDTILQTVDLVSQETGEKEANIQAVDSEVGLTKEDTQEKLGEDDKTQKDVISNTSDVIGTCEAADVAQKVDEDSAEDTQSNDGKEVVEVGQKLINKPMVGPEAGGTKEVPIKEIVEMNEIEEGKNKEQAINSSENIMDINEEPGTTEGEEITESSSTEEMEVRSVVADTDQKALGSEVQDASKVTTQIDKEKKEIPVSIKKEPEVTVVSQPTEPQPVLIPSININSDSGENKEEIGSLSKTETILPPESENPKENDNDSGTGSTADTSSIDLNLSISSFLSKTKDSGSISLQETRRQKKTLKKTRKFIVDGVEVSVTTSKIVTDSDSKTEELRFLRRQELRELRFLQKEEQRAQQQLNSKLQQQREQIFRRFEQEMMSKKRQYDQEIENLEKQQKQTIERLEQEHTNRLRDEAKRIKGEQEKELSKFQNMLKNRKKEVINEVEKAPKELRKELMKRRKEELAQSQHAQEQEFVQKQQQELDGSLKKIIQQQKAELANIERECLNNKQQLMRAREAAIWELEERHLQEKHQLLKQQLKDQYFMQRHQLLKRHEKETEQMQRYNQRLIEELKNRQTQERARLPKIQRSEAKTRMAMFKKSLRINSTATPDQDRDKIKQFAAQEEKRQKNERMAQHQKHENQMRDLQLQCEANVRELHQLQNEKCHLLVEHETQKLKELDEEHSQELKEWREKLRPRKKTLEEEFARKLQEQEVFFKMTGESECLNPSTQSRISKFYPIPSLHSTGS
MELK, sequence (Q14680 whole entry): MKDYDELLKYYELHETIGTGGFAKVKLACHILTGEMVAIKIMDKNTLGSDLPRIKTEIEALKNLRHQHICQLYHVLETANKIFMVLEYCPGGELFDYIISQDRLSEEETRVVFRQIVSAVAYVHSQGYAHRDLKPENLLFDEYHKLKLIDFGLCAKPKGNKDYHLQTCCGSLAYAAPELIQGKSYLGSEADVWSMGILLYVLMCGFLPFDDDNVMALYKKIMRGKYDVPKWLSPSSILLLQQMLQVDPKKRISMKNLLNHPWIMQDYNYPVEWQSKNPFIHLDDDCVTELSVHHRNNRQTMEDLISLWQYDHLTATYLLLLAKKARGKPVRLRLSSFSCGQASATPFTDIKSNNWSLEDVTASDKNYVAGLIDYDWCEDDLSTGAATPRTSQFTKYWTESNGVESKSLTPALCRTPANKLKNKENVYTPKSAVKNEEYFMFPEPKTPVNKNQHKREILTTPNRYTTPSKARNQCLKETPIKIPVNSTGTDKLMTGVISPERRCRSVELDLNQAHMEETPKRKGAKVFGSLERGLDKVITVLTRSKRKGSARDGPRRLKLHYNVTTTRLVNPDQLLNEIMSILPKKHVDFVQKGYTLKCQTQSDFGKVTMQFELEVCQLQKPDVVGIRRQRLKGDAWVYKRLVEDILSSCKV
FLT1, sequence (P17948 whole entry): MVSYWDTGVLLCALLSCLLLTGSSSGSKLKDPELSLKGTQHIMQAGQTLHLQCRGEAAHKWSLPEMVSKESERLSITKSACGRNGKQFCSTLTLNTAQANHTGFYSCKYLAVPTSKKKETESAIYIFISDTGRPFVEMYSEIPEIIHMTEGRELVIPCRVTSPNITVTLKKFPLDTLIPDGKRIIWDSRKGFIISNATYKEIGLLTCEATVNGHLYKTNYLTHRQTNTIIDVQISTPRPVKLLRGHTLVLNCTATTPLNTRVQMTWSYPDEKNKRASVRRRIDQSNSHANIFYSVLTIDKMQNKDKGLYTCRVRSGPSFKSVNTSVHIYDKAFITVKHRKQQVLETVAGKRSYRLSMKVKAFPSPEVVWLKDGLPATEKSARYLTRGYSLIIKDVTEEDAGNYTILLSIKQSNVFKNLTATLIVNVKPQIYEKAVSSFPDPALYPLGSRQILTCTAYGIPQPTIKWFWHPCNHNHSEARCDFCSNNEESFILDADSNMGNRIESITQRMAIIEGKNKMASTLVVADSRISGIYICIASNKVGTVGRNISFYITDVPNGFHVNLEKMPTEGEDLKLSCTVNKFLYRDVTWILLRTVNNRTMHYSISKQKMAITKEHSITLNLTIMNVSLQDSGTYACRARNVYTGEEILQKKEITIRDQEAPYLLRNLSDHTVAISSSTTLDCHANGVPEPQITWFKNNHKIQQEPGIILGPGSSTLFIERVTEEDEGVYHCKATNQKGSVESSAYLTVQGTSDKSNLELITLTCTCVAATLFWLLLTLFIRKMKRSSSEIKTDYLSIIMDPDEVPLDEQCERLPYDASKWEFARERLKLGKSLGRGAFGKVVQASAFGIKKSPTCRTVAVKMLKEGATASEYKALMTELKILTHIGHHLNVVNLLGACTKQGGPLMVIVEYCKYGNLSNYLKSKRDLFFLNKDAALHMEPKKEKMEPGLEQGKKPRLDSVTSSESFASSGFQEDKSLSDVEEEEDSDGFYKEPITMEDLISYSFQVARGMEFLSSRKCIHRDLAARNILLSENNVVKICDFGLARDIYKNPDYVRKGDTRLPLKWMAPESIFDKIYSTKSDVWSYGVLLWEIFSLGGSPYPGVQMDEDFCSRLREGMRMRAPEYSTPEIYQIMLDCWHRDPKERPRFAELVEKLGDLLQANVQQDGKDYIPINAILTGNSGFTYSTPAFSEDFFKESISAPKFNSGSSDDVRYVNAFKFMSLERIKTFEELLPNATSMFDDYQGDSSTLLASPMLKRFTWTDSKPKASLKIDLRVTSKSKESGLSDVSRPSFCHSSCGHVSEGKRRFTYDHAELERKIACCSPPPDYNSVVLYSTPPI
T1 sequence (Q16659 whole entry): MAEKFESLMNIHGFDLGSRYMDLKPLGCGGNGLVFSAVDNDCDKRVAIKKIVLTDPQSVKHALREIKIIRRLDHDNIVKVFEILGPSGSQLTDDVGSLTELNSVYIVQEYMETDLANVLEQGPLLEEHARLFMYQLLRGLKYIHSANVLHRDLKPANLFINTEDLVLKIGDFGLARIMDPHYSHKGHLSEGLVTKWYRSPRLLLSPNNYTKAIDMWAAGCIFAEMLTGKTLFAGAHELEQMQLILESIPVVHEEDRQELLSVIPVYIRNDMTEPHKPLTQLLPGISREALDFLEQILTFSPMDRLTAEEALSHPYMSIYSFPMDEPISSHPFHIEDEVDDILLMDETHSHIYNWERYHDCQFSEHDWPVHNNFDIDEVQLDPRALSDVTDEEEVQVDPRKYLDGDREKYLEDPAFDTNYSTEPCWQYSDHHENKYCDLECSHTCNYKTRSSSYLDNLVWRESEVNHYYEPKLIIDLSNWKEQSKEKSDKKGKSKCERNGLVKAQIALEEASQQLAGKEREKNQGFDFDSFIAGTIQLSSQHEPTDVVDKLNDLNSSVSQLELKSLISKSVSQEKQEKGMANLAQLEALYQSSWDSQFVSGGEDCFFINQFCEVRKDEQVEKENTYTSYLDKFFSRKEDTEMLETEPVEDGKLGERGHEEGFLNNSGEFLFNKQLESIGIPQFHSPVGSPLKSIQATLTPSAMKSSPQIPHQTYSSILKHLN

CC#CC(=O)N1CCC[C@H]1c1nc(-c2ccc(C(=O)Nc3ccccn3)cc2)c2c(N)nccn12 [Acalabrutinib]
remaining binding at 0.3 µM (ERK3; [1]): 91% | remaining binding at 0.3 µM (PKN1; [1]): 81% | remaining binding at 0.3 µM (FLT1; [1]): 89% | remaining binding at 0.3 µM (SLK; [1]): 88% | remaining binding at 0.3 µM (MELK; [1]): 81% | remaining binding at 0.3 µM (FLT3; [1]): 86% | remaining binding at 0.3 µM (ITK; [1]): 97%

C=CC(=O)N1CCC[C@@H](n2nc(-c3ccc(Oc4ccccc4)cc3)c3c(N)ncnc32)C1 [Ibrutinib]
remaining binding at 0.3 µM (FLT1; [2]): 82% | remaining binding at 0.3 µM (SLK; [2]): 92% | remaining binding at 0.3 µM (CDKL2; [2]): 99% | remaining binding at 0.3 µM (MELK; [2]): 74% | remaining binding at 0.3 µM (FLT3; [2]): 47% | remaining binding at 0.3 µM (ITK; [2]): 27%

CC#CC(=O)N1CC[C@@H](n2c(=O)n(-c3ccc(Oc4ccccc4)cc3)c3c(N)ncnc32)C1 [Tirabrutinib]
remaining binding at 0.3 µM (ERK3; [3]): 90% | remaining binding at 0.3 µM (PKN1; [3]): 99% | remaining binding at 0.3 µM (FLT1; [3]): 74% | remaining binding at 0.3 µM (SLK; [3]): 93% | remaining binding at 0.3 µM (CDKL2; [3]): 84% | remaining binding at 0.3 µM (MELK; [3]): 82% | remaining binding at 0.3 µM (FLT3; [3]): 98% | remaining binding at 0.3 µM (ITK; [3]): 99%

C=CC(=O)N1CCC([C@@H]2CCNc3c(C(N)=O)c(-c4ccc(Oc5ccccc5)cc4)nn32)CC1 [Zanubrutinib]
remaining binding at 0.3 µM (ERK3; [4]): 98% | remaining binding at 0.3 µM (PKN1; [4]): 100% | remaining binding at 0.3 µM (SLK; [4]): 99% | remaining binding at 0.3 µM (CDKL2; [4]): 100% | remaining binding at 0.3 µM (MELK; [4]): 59% | remaining binding at 0.3 µM (FLT3; [4]): 90% | remaining binding at 0.3 µM (ITK; [4]): 97%
